Here are results for one molecule from patent US10925875B2 (National Jewish Health, priority 2018, dated 2021).

Structures are written as SMILES.

Format in all cases: cell-based, human
For one data set, the system named is IL5 secretion by ILCs. Nature of the data set: Secreted IL5 by ELISA from isolated Lin− blood cells. As to conditions: Dex 10^-7 M, 5 days. The procedure: (§1) FIGS. 2C and 2D show lineage-negative (Lin−) cells (0.4×10^6 per culture) from peripheral blood obtained from 3 allergic rhinitis (non-asthmatic) patients were cultured with IL2/IL33 or IL2/TSLP with and without Dex (10^-7 M) for 5 days. Cell-free supernatant was analyzed for IL5 by ELISA. Cells were analyzed by FCM for intracellular IL5. P value for data on panel C was calculated by paired t test due to low N. Interleukin-2 (IL-2); interleukin-33 (IL-33).
(§2) The direct effect of Dex on isolated lineage− negative (Lin−) cells (representing ILCs) from the peripheral blood was examined. The effect of Dex was measured by two approaches: measurement of secreted IL5 by ELISA and measurement of the expression of intracellular IL5 by FCM. Dex inhibited IL5 secretion by IL2/IL33-stimulated ILCs by nearly 79% (FIG. 2C). In contrast, it inhibited IL5 secretion by IL2/TSLP-stimulated ILCs by only 25%. […] Dex inhibited intracellular IL5 expression in IL2/IL33- and IL2/TSLP-stimulated ILCs by 65% and 18%, respectively (FIG. 2D).
In general terms: ELISA stands for enzyme-linked immunosorbent assay.

Data set [1] has as its system intracellular IL5 expression in ILCs. Briefly: Intracellular IL5 by FCM in isolated Lin− blood cells. As to conditions: Dex 10^-7 M, 5 days. As to the method: as §1, §2
Data set [2] relates to IL5+ ILC2s from the blood. Nature of the data set: Steroid response of blood IL5+ ILC2s by flow cytometry. As to conditions: MNC and BAL cells, Dex 10^−7M, 3 days, e-Fluor 780. As to the method:
(§3) FIGS. 1A and 1B show the effect of dexamethasone (Dex) on blood (A) and bronchoalveolar lavage (BAL) (B) Type 2 innate lymphoid cells (ILC2s). Peripheral blood mononuclear cells (PBMC) and BAL cells from an asthmatic patient were cultured with vehicle (V, ethanol)) or dexamethasone (Dex 10^−7M), a synthetic steroid, for 3 days. The frequency of lin−CRTH2+IL7Rα+IL5+ cells (considered as markers of ILC2s) was measured by flow cytometry (FCM) and analyzed by FlowJo. Frequency of dead cells (measured by e-Fluor 780, e-Bioscience) was less than 10% and excluded from the gating. The difference in dead cells between V and Dex was less than 10%). Prostaglandin D2 receptor 2 (CRTH2); interleukin-7 receptor alpha (IL7Rα); interleukin-5 (IL-5).
FIGS. 1C and 1D show the cumulative data on the effect of dexamethasone (Dex) on blood (FIG. 1C) and BAL (FIG. 1D) lin−CRTH2+IL7Rα+IL5+ cells from 14 allergic asthmatic patients.
Steroid response of ILC2s from the bronchoalveolar lavage (BAL, obtained during bronchoscopy) and blood obtained from asthmatic patients was studied. Blood was processed to isolate mononuclear cells (MNC). BAL cells were studied without further processing. […] Interluekin-5 (IL5)-expressing ILC2s were examined by flow cytometry and analyzed by FlowJo. […] Frequency of dead cells (measured by e-Fluor 780, e-Bioscience) was less than 10% and excluded from the gating. […]
A general note: A flow cytometer gives signals particle by particle.

For a further data set, the system named is BAL IL5+ ILC2s. Nature of the data set: Steroid response of BAL IL5+ ILC2s by flow cytometry. Conditions: BAL cells, MS 100 μM with and without Dex 10^−7M, 3 days. As to the method:
as §3, with “(IL-5). […]” for “(IL-5).”
BAL cells were cultured with MS (100 μM) with and without Dex (10^−7M) for 3 days. IL5 expression by lin−CRTH2+IL7Rα+ ILC2s was measured by FCM (N=8, *: P=0.0006 by Kruskal Walis test).
Steroid response of ILC2s from the bronchoalveolar lavage (BAL, obtained during bronchoscopy) and blood obtained from asthmatic patients was studied. […] Interluekin-5 (IL5)-expressing ILC2s were examined by flow cytometry and analyzed by FlowJo. […] Frequency of dead cells (measured by e-Fluor 780, e-Bioscience) was less than 10% and excluded from the gating. […]

The test system of a further data set is MEK1/2 in ILC2s. Nature of the data set: Cytokine-induced MEK1/2 in ILC2s by FCM. Conditions: PBMCs, IL2 plus TSLP with and without Dex, 5 days, lin−CRTH2+ cells. The procedure: FIGS. 4A and 4B show the effect of Dex on cytokine-induced MEK1 (MEK) induction. PBMCs from an asthmatic patient were cultured with medium or IL2 plus one of the two epithelial ILC-inducing cytokines—IL33 and TSLP with and without Dex for 5 days. The expression of MEK on gated live lin−CRTH2+ cells was analyzed by FCM.
Heightened MEK1/2 mediates steroid resistance of lymphocytes. The effect of IL33 and TSLP on MEK1/2 induction and the effect of Dex was examined.

On to `C[C@@H]1C[C@H]2[C@@H]3CCC4=CC(=O)C=C[C@]4(C)[C@@]3(F)[C@@H](O)C[C@]2(C)[C@@]1(O)C(=O)CO` [Dex, dexamethasone], for which the “inhibition of IL5 secretion” value with IL5 secretion by ILCs (IL2/IL33-stimulated ILCs) is recorded as about 79%; with IL5 secretion by ILCs (IL2/TSLP-stimulated ILCs), 25%. Besides, the entries for the “inhibition of intracellular IL5 expression” value in data set [1] (IL2/IL33-stimulated ILCs) and in data set [1] (IL2/TSLP-stimulated ILCs) were 65% and 18%, respectively. Moreover, the “difference in dead cells between V and Dex” value in data set [2] is reported as “less than 10%”. Besides, the “inhibition of BAL IL5+ ILC2s” value in the data set on BAL IL5+ ILC2s is “failed to inhibit”. Also, the “TSLP-induced MEK1/2” value with MEK1/2 in ILC2s is “failed to inhibit”.
